# Assay results as given in patent US6723702B2, “Use of relaxin treat diseases related to vasoconstriction” (RAS Medical, Inc., priority 2000, dated 2004).
# Experiments:
# rats = test: Metabolic cage studies; format: in vivo, rat
# Description: Six rats were individually housed in Nalgene metabolism cages (Rodent Metabolism Cages for 150-300 g rats, VWR Scientific). Water and food were provided ad libidum. After 5-7 days of habituation, two baseline 24-hour urine collections were obtained. Then, an osmotic minipump containing purified porcine RLX was implanted (4 μg/hour). […] Food and water intake, as well as urinary flow rate were measured by gravimetric technique. The urinary excretion of sodium, cyclic guanosine monophosphate, and NOx were also determined. The measurements made during the two baseline collections were averaged, as were the measurements made during the three post-relaxin collections.
# Plasma osmolality was measured using a freezing-point depression instrumentation osmometer (Model 3MO, Advanced Instruments, Needham Heights, Mass.). Plasma and urine IN and PAH were assayed by standard techniques. Urinary sodium concentration was measured by ion selective electrode (Sodium-Potassium Chemistry Module, Beckman Instruments, Inc., Brea, Calif.). Urinary cGMP was determined by specific radioimmunoassay as previously described. Conrad and Vernier (1989) Am. J. Physiol. 257:R847-R853. Urinary NOX was measured by reduction of nitrate to nitrite, the latter determined by the Griess reaction which produces a calorimetric product measured at 540 nm (Nitrate/Nitrite Colorimetric Assay Kit, Cayman Chemical, Ann Arbor, Mich.).
# [1] = Serum rhRLX, quantitative sandwich immunoassay (Example 2); format: in vivo, rat; settings: 4 μg/hour
# Excerpt: The technique of urine collection has proven to be reliable. Conrad and Colpoys (1986) J. Clin. Invest. 77:236-245; Danielson and Conrad (1995) J. Clin. Invest. 96:482-490; and Danielson and Conrad (1996) Circ. Res. 79:1161-1166. Indeed, after reaching steady-state in this study, the excretion rates of IN and PAH were 91±3 and 100±4% of their respective infusions. After measuring baseline mean arterial pressure and renal function, an osmotic minipump (model 2ML1, Alza Co., Palo Alto Calif.) containing either recombinant human relaxin (rhRLX; n=12 rats) or vehicle (n=7) was implanted subcutaneously on the back using light ether anesthesia. […] Five days later, mean arterial pressure (MAP), glomerular filtration rate (GFR), effective renal plasma flow (ERPF), and other parameters were again assessed as describe above. At this time, the excretion rates of IN and PAH were 91±3 and 98±2% of their respective infusion rates. […]
# Inulin concentration in plasma and urine was measured by the anthrone method, and PAH was determined by the method of Bratton and Marshall as modified by Smith. […] Plasma sodium was measured by a Kodak Ektachem Instrument (Rochester, N.Y.). Plasma osmolality was determined by freezing point depression (Advanced Osmometer, Model 3MO, Advanced Instruments, Needham Heights Mass.). […] The rhRLX in serum was measured using a quantitative sandwich immunoassay, again in a blinded fashion. […]
# [2] = system: ischemic wound on the back region of rats; test: Ischemic H-shaped double flap wound model; format: in vivo, rat
# Description: The effect of rhRLX on normal and ischemic wound healing in two rat models of dermal wound healing was evaluated. RhRLX in vehicle, or vehicle alone, was delivered by subcutaneous infusion to Sprague-Dawley rats using an implanted ALZET7 osmotic pump (Alza Corp., Mountain View, Calif.).
# In the second model, a standardized ischemic, H-shaped, double flap wound was made on the back region. The area of surface necrosis was measured on day 14 and day 21.
# In the third animal model, a standard ischemic wound (H-shaped, 8 cm long and 2 cm wide) was created on the back region of rats. Perforating branches of the central vein were cut to ensure that the wound was ischemic. The resulting wound is then ischemic, but not completely necrotic. On day 14 and day 21, the surface necrosis was measured. RhRlx treatment (0.2 mg/kg via minipump) reduced the surface necrotic area in the flap region, compared to vehicle treatment (at day 14: vehicle 195 mm^2, rhRlx 123 mm^2; at day 21 vehicle 180 mm^2, rhRlx 103 mm^2).
# human cardiac cells = test: VEGF protein secreted by human cardiac cells; format: cell-based; settings: 100 ng/ml, 24 hr
# Description: Consistent with RT-PCR data, relaxin stimulated a small but significant dose-related increase in levels of VEGF protein secreted by human cardiac. Cells were seeded in 35 mm wells at 2.5×10^5 cells per well 24 hours prior to treatment with relaxin. Cells were washed twice with SmBM (no supplements) and incubated for 2 hr with SmBM treatment medium (containing 400 pg/ml bFGF, gentamycin, amphoteracin B, and 2% fetal calf serum) at 37° C., 5% CO2. The medium was then replaced with SmBM treatment medium without relaxin or with concentrations of relaxin from 0.1 ng/ml to 100 ng/ml. Cells were then incubated for 24 hr (37° C., 5% CO2).
substance,measurement,setting,value
"Porcine RLX: lyophilized, purified porcine relaxin (Sherwood and O'Byrne 1974), dissolved in Ringer's solution",Food intake,rats; Baseline,13.2 ± 1.0 g
same,Urinary NOx excretion,rats; Baseline,4.8 ± 0.5 μmole/24hours
same,Urinary cGMP excretion,rats; Baseline,32.2 ± 1.9 nmole/24 hours
same,Urinay sodium excretion,rats; Baseline,438.8 ± 34.4 μEq/24hours
same,Urine output,rats; Baseline,9.1 ± 1.7 ml/24 hours
same,Water intake,rats; Baseline,19.1 ± 2.7 mL
same,Food intake,rats; Day 2 of RLX 4 μg/hour s.c.,15.5 ± 1.5 g
same,Urinary NOx excretion,rats; Day 2 of RLX 4 μg/hour s.c.,6.0 ± 1.0 μmole/24hours
same,Urinary cGMP excretion,rats; Day 2 of RLX 4 μg/hour s.c.,26.5 ± 2.5 nmole/24 hours
same,Urinay sodium excretion,rats; Day 2 of RLX 4 μg/hour s.c.,800.2 ± 77.2 μEq/24hours
same,Urine output,rats; Day 2 of RLX 4 μg/hour s.c.,11.4 ± 2.2 ml/24 hours
same,Water intake,rats; Day 2 of RLX 4 μg/hour s.c.,20.1 ± 3.4 mL
same,Food intake,rats; Day 5 of RLX 4 μg/hour s.c.,16.7 ± 1.0 g
same,Urinary NOx excretion,rats; Day 5 of RLX 4 μg/hour s.c.,5.9 ± 0.7 μmole/24hours
same,Urinary cGMP excretion,rats; Day 5 of RLX 4 μg/hour s.c.,28.6 ± 3.8 nmole/24 hours
same,Urinay sodium excretion,rats; Day 5 of RLX 4 μg/hour s.c.,477.8 ± 57.9 μEq/24hours
same,Urine output,rats; Day 5 of RLX 4 μg/hour s.c.,8.8 ± 0.9 ml/24 hours
same,Water intake,rats; Day 5 of RLX 4 μg/hour s.c.,23.6 ± 3.3 mL
same,Food intake,rats; Post-relaxin day 4-18,15.3 ± 0.5 g
same,Urinary NOx excretion,rats; Post-relaxin day 4-18,6.1 ± 0.9 μmole/24hours
same,Urinary cGMP excretion,rats; Post-relaxin day 4-18,32.7 ± 3.8 nmole/24 hours
same,Urinay sodium excretion,rats; Post-relaxin day 4-18,480.69 ± 54.4 μEq/24hours
same,Urine output,rats; Post-relaxin day 4-18,9.1 ± 1.1 ml/24 hours
same,Water intake,rats; Post-relaxin day 4-18,19.1 ± 2.6 mL
"rhRLX: recombinant human relaxin, identical in amino acid sequence to the product of the human H2 gene; A chain of 24, B chain of 29 amino acids",mean serum concentration of rhRLX,"[1]; female rats, day 5",16.6 ± 1.5 ng/mL
same,mean serum concentration of rhRLX,"[1]; male rats, day 5, n=12",12.3 ± 0.7 ng/mL
same,surface necrotic area in the flap region,"[2]; 0.2 mg/kg via minipump, day 14",123 mm^2
same,surface necrotic area in the flap region,"[2]; 0.2 mg/kg via minipump, day 21",103 mm^2
same,surface necrotic area in the flap region,"[2]; Example 4, day not stated",123 mm^2
same,expression of NO synthase on vascular endothelium,"[2]; immunohistochemical staining, systemic treatment",enhances
same,"VEGF secretion, maximum induction over control levels",human cardiac cells,155%
